# T1: δ802αβγ-ENaC (Homo sapiens, UniProt P51168+P51170)
# T1 construct: We characterized full-length human δ802-ENaC expressed in both Xenopus oocytes and humanized transgenic mice; expressed in transfected cells; host or cells: Xenopus laevis oocytes injected with cRNA (pGEM HE vector)
# T1 sequence (P51168 1-640): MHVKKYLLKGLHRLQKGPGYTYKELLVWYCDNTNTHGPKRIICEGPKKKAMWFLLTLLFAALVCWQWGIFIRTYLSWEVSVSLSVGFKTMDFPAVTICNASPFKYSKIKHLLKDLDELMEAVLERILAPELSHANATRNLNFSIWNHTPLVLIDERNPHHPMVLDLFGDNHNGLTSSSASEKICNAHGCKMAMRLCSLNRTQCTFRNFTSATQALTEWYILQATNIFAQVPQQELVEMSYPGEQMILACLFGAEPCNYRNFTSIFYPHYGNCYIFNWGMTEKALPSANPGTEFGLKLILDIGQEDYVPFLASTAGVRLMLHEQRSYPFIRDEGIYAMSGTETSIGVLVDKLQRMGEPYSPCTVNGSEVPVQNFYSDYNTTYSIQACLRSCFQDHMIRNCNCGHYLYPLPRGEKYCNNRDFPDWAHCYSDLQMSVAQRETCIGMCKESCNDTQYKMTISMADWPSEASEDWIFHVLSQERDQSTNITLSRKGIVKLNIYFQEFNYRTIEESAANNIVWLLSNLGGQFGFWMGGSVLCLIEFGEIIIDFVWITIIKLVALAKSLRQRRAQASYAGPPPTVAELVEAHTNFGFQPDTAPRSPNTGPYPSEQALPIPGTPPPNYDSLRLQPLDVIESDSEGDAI
# T1 sequence (P51170 1-649): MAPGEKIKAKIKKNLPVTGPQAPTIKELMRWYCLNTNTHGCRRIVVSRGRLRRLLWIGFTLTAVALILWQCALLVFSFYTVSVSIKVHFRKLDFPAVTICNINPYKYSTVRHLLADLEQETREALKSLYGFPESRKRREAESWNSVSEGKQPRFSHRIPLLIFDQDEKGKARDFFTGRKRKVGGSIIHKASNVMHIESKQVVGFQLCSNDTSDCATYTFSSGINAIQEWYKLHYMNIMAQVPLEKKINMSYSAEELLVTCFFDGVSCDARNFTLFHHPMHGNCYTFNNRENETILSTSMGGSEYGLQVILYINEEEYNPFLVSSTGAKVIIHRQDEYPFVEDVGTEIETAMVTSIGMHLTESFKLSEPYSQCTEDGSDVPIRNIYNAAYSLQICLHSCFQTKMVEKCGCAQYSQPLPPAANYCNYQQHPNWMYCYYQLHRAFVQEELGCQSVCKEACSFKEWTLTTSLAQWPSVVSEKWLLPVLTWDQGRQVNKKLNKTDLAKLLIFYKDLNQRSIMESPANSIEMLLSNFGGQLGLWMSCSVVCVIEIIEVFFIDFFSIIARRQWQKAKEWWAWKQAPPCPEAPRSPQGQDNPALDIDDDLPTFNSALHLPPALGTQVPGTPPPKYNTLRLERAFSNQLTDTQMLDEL
# T2: human αβγ-ENaC (Homo sapiens, UniProt P37088+P51168+P51170)
# T2 construct: expressed in transfected cells; host or cells: Xenopus laevis oocytes injected with cRNA (pGEM HE vector)
# T2 sequence (P37088 1-669): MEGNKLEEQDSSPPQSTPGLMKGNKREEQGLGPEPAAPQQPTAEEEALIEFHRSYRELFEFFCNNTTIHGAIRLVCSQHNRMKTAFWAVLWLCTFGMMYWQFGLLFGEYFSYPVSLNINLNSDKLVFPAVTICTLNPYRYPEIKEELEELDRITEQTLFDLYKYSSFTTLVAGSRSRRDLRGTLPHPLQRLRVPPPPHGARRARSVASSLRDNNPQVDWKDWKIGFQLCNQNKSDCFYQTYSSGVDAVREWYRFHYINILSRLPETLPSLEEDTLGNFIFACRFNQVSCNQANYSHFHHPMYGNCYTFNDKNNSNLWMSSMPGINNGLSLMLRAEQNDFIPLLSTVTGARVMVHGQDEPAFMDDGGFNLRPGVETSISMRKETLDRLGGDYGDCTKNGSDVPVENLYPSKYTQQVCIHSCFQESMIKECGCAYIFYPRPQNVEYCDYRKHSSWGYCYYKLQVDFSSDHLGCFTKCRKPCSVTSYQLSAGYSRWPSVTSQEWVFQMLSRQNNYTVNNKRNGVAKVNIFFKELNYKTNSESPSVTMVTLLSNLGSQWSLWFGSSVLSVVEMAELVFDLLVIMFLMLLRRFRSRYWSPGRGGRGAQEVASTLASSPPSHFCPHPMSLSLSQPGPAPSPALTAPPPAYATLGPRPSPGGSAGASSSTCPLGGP
# T2 sequence (P51168 1-640): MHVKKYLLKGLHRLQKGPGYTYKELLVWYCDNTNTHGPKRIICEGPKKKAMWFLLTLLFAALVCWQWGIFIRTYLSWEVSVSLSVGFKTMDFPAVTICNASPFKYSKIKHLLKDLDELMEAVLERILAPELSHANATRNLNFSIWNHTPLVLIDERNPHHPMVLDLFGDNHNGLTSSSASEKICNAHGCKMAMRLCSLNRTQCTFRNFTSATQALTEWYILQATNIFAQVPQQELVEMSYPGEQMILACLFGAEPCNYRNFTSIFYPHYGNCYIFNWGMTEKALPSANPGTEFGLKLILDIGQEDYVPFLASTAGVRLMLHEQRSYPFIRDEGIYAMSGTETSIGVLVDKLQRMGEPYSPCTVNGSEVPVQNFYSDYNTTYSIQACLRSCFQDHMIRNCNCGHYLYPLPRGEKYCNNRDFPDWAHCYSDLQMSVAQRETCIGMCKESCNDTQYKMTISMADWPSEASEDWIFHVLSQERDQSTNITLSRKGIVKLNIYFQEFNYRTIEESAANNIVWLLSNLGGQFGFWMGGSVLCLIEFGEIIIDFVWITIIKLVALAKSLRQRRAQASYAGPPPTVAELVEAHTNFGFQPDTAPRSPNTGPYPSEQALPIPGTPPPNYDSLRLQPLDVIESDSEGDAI
# T2 sequence (P51170 1-649): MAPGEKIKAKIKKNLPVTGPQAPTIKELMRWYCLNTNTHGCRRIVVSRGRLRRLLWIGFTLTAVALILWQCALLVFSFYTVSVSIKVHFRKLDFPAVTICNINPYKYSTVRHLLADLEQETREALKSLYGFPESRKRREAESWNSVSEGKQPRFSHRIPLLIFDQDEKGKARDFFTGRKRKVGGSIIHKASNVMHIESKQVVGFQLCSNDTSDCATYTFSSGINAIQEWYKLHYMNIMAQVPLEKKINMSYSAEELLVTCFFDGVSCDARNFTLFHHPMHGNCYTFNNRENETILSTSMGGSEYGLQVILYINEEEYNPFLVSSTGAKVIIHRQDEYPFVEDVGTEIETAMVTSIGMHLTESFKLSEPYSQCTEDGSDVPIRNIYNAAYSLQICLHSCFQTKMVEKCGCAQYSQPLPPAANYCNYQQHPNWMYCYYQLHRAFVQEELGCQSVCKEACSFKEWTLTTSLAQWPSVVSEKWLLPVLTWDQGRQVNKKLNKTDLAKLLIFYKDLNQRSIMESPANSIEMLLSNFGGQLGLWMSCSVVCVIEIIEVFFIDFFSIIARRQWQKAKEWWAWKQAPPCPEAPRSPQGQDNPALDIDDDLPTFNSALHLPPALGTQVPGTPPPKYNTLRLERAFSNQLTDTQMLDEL
# Columns and labels:
# [1] = molecular target: T1, δ802αβγ-ENaC; test: Two-electrode voltage clamp of δ802αβγ-ENaC expressed in Xenopus oocytes; assay type: cell-based
# Experimental: (§1) Cloning, in vitro transcription, and heterologous expression of δ802 ENaC and two-electrode voltage clamping assay. δ802 and other ENaC subunits were generated in human ENaC cDNAs cloned into a pGEM HE vector [4], [76]. cRNAs of human α, β, and γ ENaC were prepared as described previously. The stoichiometry of native ENaC complexes is unclear to date. Based on the studies in the last decade, several models have been proposed for αβγ ENaC channels: 1α1β1γ, 2α1β1γ, 3α3β3γ. Based on the EM structure of human αβγ ENaC [35], the currently acceptable model of human αβγ ENaC complexes is heterotrimeric (1α1β1γ). Thus we microinjected δ802:β:γ in a 1:1:1 subunit ratio. Oocytes were surgically removed from appropriately anesthetized adult female Xenopus laevis (Xenopus Express). Briefly, the ovarian tissue was removed from the frog under anesthesia by tricaine-S (Western Chemicals) through a small incision in the lower abdomen. Ovarian lobes were removed and digested in OR-2 calcium-free medium (in mM: 82.5 NaCl, 2.5 KCl, 1.0 MgCl2, 1.0 Na2HPO4, and 10.0 HEPES, pH 7.5) with the addition of 2 mg/ml collagenase (Roche, Indianapolis). Defolliculated oocytes were injected with ENaC cRNAs into the cytosol (25 ng per oocyte in 50 nl of RNase-free water) and incubated in regular OR-2 medium at 18°C. The two-electrode voltage-clamp technique was used to record whole-cell currents 48 h post injection. Oocytes were impaled with two electrodes filled with 3M KCl, having resistance of 0.5 - 2 MΩ. A TEV-200A voltage-clamp amplifier (Dagan) was used to clamp oocytes with concomitant recording of currents. Two reference electrodes were connected to the bath. The continuously perfused bathing solution was ND-96 medium (in mM: 96.0 NaCl, 1.0 MgCl2, 1.8 CaCl2, 2.5 KCl, and 5.0 HEPES, pH 7.5). Whole-cell currents were recorded as previously reported. Experiments were controlled by pCLAMP 10.7 software (Molecular Devices), and currents at -40 mV, -100 mV, and +80 mV were continuously monitored with data recorded at intervals of 10 sec. Data were sampled at the rate of 200 Hz and filtered at 50 Hz.
# [2] = molecular target: T2, human αβγ-ENaC; test: Two-electrode voltage clamp of αβγ-ENaC expressed in Xenopus oocytes; assay type: cell-based
# Experimental: as §1
# [3] = oocytes pre-treated, currents at -100 mV, n=5, Figure 3D
molecule,measurement,setting,value
N=C(N)NC(=O)c1nc(Cl)c(N)nc1N [amiloride],inhibition of the α-13 peptide-resistant remaining fraction of current amplitude,"[1]; amiloride 10 μM after α-13 300 μM, δαβγ-ENaC, -100 mV",approximately 80%
Ac-LRGTLPHPLQRLR-NH2 [α-13 peptide],α-13 inhibitable fraction of αβγ-ENaC channels after plasmin / aprotinin pre-treatment,"[2]; n=8, Figure 3E",not significantly affected by fibrinolytic activity
same,IC50,"[2]; oocytes, current at -100 mV, n=4, Chi^2 = 0.44, R^2 = 0.993, read-out: IC50 on αβγ-ENaC channels (Hill equation)",100 ± 10 nM
same,inhibition of human αβγ-ENaC current,"[2]; α-13 300 μM compared with amiloride 10 μM, -100 mV, subsequent amiloride did not reduce activity further",same efficacy as amiloride
same,fraction of total δαβγ-ENaC activity suppressed,"[1]; α-13 300 μM, -100 mV, n=5, Figure 2B",Approximately half
"plasmin: serine protease of the plasmin(ogen) signal pathway for fibrinolysis (protein, UniProt P00747 20-580; P00747 581-810, looked up, Plasmin, serine protease of the plasmin(ogen) signal pathway for fibrinolysis) Plasmin heavy chain A: EPLDDYVNTQGASLFSVTKKQLGAGSIEECAAKCEEDEEFTCRAFQYHSKEQQCVIMAENRKSSIIIRMRDVVLFEKKVYLSECKTGNGKNYRGTMSKTKNGITCQKWSSTSPHRPRFSPATHPSEGLEENYCRNPDNDPQGPWCYTTDPEKRYDYCDILECEEECMHCSGENYDGKISKTMSGLECQAWDSQSPHAHGYIPSKFPNKNLKKNYCRNPDRELRPWCFTTDPNKRWELCDIPRCTTPPPSSGPTYQCLKGTGENYRGNVAVTVSGHTCQHWSAQTPHTHNRTPENFPCKNLDENYCRNPDGKRAPWCHTTNSQVRWEYCKIPSCDSSPVSTEQLAPTAPPELTPVVQDCYHGDGQSYRGTSSTTTTGKKCQSWSSMTPHRHQKTPENYPNAGLTMNYCRNPDADKGPWCFTTDPSVRWEYCNLKKCSGTEASVVAPPPVVLLPDVETPSEEDCMFGNGKGYRGKRATTVTGTPCQDWAAQEPHRHSIFTPETNPRAGLEKNYCRNPDGDVGGPWCYTTNPRKLYDYCDVPQCAAPSFDCGKPQVEPKKCPGR Plasmin light chain B: VVGGCVAHPHSWPWQVSLRTRFGMHFCGGTLISPEWVLTAAHCLEKSPRPSSYKVILGAHQEVNLEPHVQEIEVSRLFLEPTRKDIALLKLSSPAVITDKVIPACLPSPNYVVADRTECFITGWGETQGTFGAGLLKEAQLPVIENKVCNRYEFLNGRVQSTELCAGHLAGGTDSCQGDSGGPLVCFEKDKYILQGVTSWGLGCARPNKPGVYVRVSRFVTWIEGVMRNN",effect of pre-treatment on αβγ-ENaC activity,[2]; [3],potentiated
same,effect of pre-treatment on δ802αβγ-ENaC activity,[1]; [3],potentiated

# — PMC6857051, “Proliferative regulation of alveolar epithelial type 2 progenitor cells by human Scnn1d gene” (Theranostics, 2019)
